Converted amounts (≈) assume the structure as drawn.

Test in all cases: MIC in vitro, agar diffusion well method
Common to all, as to format: cell-based

Test [1] deals with Bacillus subtilis ATCC 558. The conditions noted are these: Bacillus subtilis ATCC 558, agar diffusion well method. The source says:
(§1) Minimal inhibitory concentration (mcg/ml)
(§2) *As determined by an agar diffusion well method.
For orientation: In agar diffusion tests the substance spreads into inoculated agar from a disc or well.

Test [2] deals with Paecilomyces varioti ATCC 28820. The conditions noted are these: Paecilomyces varioti ATCC 28820, agar diffusion well method.
Source text: as §1, §2

In test [3] the test system is Bacillus megaterium ATCC 8011. The conditions noted are these: Bacillus megaterium ATCC 8011, agar diffusion well method.
Source text: as §1, §2

Test [4] deals with Mycobacterium phlei ATCC 355. Conditions: Mycobacterium phlei ATCC 355, agar diffusion well method.
Source text: as §1, §2

For test [5], the system named is Streptomyces cellulosae ATCC 3313. The conditions noted are these: Streptomyces cellulosae ATCC 3313, agar diffusion well method.
Source text: as §1, §2

The subject of test [6] is Candida albicans NRRL 477. Conditions: Candida albicans NRRL 477, agar diffusion well method.
Source text: as §1, §2

Test [7] deals with Bacillus sp. E ATCC 27359. Conditions: Bacillus sp. E ATCC 27359, agar diffusion well method.
Source text: as §1, §2

The subject of test [8] is Streptococcus faecium ATCC 8043. The conditions noted are these: Streptococcus faecium ATCC 8043, agar diffusion well method.
Source text: as §1, §2

For test [9], the system named is Staphylococcus aureus ATCC 6538P.
Source text: as §1, §2

Test [10] deals with Penicillium digitatum ATCC 26821. Conditions: Penicillium digitatum ATCC 26821, agar diffusion well method.
Source text: as §1, §2

For test [11], the system named is Bacillus sp. TA ATCC 27860. Conditions: Bacillus sp. TA ATCC 27860, agar diffusion well method.
Source text: as §1, §2

The test system of test [12] is Saccharomyces cerevisiae ATCC 4226. The conditions noted are these: Saccharomyces cerevisiae ATCC 4226, agar diffusion well method.
Source text: as §1, §2

In the case of `CC[C@H](C(=O)[C@@H](C)[C@@H](O)[C@H](C)[C@H]1O[C@@](O)(CC)[C@@H](C)C[C@@H]1C)[C@H]1O[C@](C)(C23OC(C)C(CC)(CC2C)O3)C[C@@H]1C` (stereo partly drawn) [Antibiotic X-14889D], the Minimal inhibitory concentration in [1], in test [2], in test [3], in [4], in test [5] and in test [6] was 1000 µg/mL (≈ 1760 µM) throughout. In addition, the Minimal inhibitory concentration in test [7] is 7.9 µg/mL (≈ 13.9 µM); in test [8] it was 125 µg/mL (≈ 221 µM); in test [9], 125 µg/mL (≈ 221 µM); in [10] it was 1000 µg/mL (≈ 1760 µM); in test [11], 1000 µg/mL (≈ 1760 µM); in [12], 1000 µg/mL (≈ 1760 µM).
